Test results: patent US20150064227A1, “Sporicidal Formulation Including Botanical Extracts/Botanical-Derived Ingredients” (priority 2011, published 2015)

What follows are molecules tested on C. diff. spores (Clostridium difficile ATCC 43593) (assay: Sporicidal Efficacy Test against C. diff. spores). Settings: botanical-derived ingredient 5.9 mg/ml in 75 % ethanol / 25 % water by volume; 5 min contact time.
Type: cell-based
Text: (§1) To determine the kill rate of solutions of interest against bacterial spores.
(§2) Materials: • 1. Test solutions of interest • 2. Clostridium difficile ATCC 43593 • 3. Geobacillus stearothermophilus CICC 10142 • 4. Filter sterilized MilliQ water • 5. Neutralization broth (prepared according to directions below) • 6. Brain Heart Infusion (BHI) agar plates with 0.15% Sodium Taurocholate • 7. Tryptic Soy Agar (TSA) plates • 8. Taurocholic acid sodium salt hydrate (Sigma-Aldrich T-4009) • 9. Phosphate buffered saline (PBS) pH 7.2 • 10. Fetal Bovine Serum (FBS) • 11. Sterile plating beads • 12. Sterile Eppendorf vials (1.5 mL) • 13. Sterile tubes (15 mL) • 14. Pipettes and sterile pipette tips (100 μL and 1000 μL) • 15. Incubator capable of 37±3° C. • 16. Anaerobic rectangular jar (7 Liter AnaeroPack System commercially available from Mitsubishi Gas Chemical Co.) with 3 GasPak satchels (BD GasPak EZ, #260678)
(§3) Procedure: • 1. Prepare culture stock of organism of interest to 10^7 CFU/ml in PBS. • 2. Thoroughly vortex the stock culture for ten minutes at medium-high speed. • 3. Dilute a small portion of the stock culture in MilliQ filter sterilized water and add FBS soil load to the inoculum to achieve a concentration of 5% v/v FBS. • 4. Place the inoculum in a sonicating water bath for five cycles of one minute on, one minute off • 5. Add 100 μL of spore culture to sterile vial containing 900 μL of test solution and vortex. • 6. After the test exposure time, vortex the vials. • 7. Transfer 100 μL of test solution and spore mixture to sterile tubes containing 900 μL neutralization broth to neutralize. • 8. Place the neutralized samples in a sonicating water bath for five cycles of one minute on, one minute off • 9. Vortex each tube. For C. difficile, pipette 100 μL of each neutralized sample on BHI+0.15% sodium taurocholate media plates (prepared in lab according to dehydrated powder instructions). For G. stearothermophilus, pipette 100 μL of each neutralized sample onto TSA plates. Spread using sterile beads. • 10. Prepare a control sample by adding the spore culture to 900 μL of filter sterilized MQ water and repeat steps 3-6 above. Dilute control code to achieve 10^2 CFU/ml. • 11. For C. difficile, place plates in anaerobic jars or boxes (with appropriate number of catalase pouches) or in the anaerobic chamber and incubate for 48±8 hours at 37±3° C. For G. stearothermophilus, incubate plates aerobically for 48±8 hours at […]. • 12. After incubation, enumerate colonies and record results. Calculate Log10 reduction by comparing the number of colonies recovered from the test solution versus those recovered with the control.
(§4) Neutralization Broth Preparation: • 1. Mix the following ingredients: • 1 L Letheen broth • 0.3% ppm Lecithin • 3% ppm Tween 80 • 0.1% ppm Histidine • 2. Solution is sterilized by autoclave. • 3. Catalase (0.1-0.2%) is added when completely cooled and then filter sterilized.

Molecule | Log Reduction (5 min contact time)
C[C@H]1COC2=C1C(=O)C(=O)c1c2ccc2c1CCCC2(C)C [Cryptotanshinone] | 3.43

Same assay, conditions: botanical-derived ingredient 10 mg/ml in 75 % ethanol / 25 % water by volume; 5 min contact time

Molecule | Log Reduction (5 min contact time)
CC(C)=CCC[C@]1(C)C=Cc2c(O)c3c(c(CC=C(C)C)c2O1)O[C@]12C(=C[C@@H]4C[C@H]1C(C)(C)O[C@@]2(C/C=C(/C)C(=O)O)C4=O)C3=O [Gambogic acid] | 3.96
CC(C)=CCCC1(C)CC(O)c2c(O)c3c(c(CC=C(C)C)c2O1)OC12C(=CC4CC1C(C)(C)OC2(C/C=C(\C)C(=O)O)C4=O)C3=O (stereo not drawn) [Neogambogic acid] | 3.96

Same assay, conditions: concentration not given

Molecule | sporicidal activity against C. diff. (in words)
Cc1cccc2c3c(ccc12)C1=C(C(=O)C3=O)[C@@H](C)CO1 [dihydrotanshinone] | no detectable effect
Cc1coc2c1C(=O)C(=O)c1c-2ccc2c1CCCC2(C)C [tanshinone IIA] | no detectable effect

The molecules below were run on bacterial spores (assay: Sporicidal Efficacy Test, spore species not given). Settings: under the Sporicidal Efficacy Test; concentration not given.
Type: cell-based
Text: as §1, §2, §3, §4

Molecule | sporicidal activity (in words)
CC(C)=CCC[C@]1(C)C=Cc2c(O)c3c(c(CC=C(C)C)c2O1)O[C@]12C(=C[C@@H]4C[C@H]1C(C)(C)O[C@@]2(C/C=C(/C)C(=O)O)C4=O)C3=O [Gambogic acid] | demonstrated sporicidal activity
C[C@H](N)C(=O)O [L-alanine] | None of these ingredients derived from botanical extracts illustrated sporicidal activity
O=C(O)[C@@H]1CCCN1 [L-proline] | None of these ingredients derived from botanical extracts illustrated sporicidal activity
CC(C)=CCCC1(C)CC(O)c2c(O)c3c(c(CC=C(C)C)c2O1)OC12C(=CC4CC1C(C)(C)OC2(C/C=C(\C)C(=O)O)C4=O)C3=O (stereo not drawn) [Neogambogic acid] | demonstrated sporicidal activity
CC(C)=CCc1cc2c(cc1O)O[C@H](c1ccc(O)cc1)CC2=O [bavachin] | None of these ingredients derived from botanical extracts illustrated sporicidal activity
O=C(O)/C=C/c1ccc(O)c(O)c1 [caffeic acid] | None of these ingredients derived from botanical extracts illustrated sporicidal activity
CC12CCC(CC1)C(C)(C)O2 [cineole] | None of these ingredients derived from botanical extracts illustrated sporicidal activity
Cc1cccc2c3c(ccc12)C1=C(C(=O)C3=O)[C@@H](C)CO1 [dihydrotanshinone] | None of these ingredients derived from botanical extracts illustrated sporicidal activity
COc1cc(/C=C/C(=O)O)ccc1O [ferulic acid] | None of these ingredients derived from botanical extracts illustrated sporicidal activity
COC(=O)C1=CO[C@@H](O[C@@H]2O[C@H](CO)[C@@H](O)[C@H](O)[C@H]2O)[C@@H]2C(CO)=CC[C@H]12 [geniposide] | None of these ingredients derived from botanical extracts illustrated sporicidal activity
O=c1c(-c2ccc(O)cc2)coc2cc(O)cc(O)c12 [genistein] | None of these botanical extracts illustrated sporicidal activity
COc1ccc(-c2oc3c(CC=C(C)C)c(O)cc(O)c3c(=O)c2O)cc1 [icaritin] | None of these ingredients derived from botanical extracts illustrated sporicidal activity
CC(C)=CCOc1c2occc2cc2ccc(=O)oc12 [imperatonin] | None of these ingredients derived from botanical extracts illustrated sporicidal activity
CC(C)=CCOc1c2ccoc2cc2oc(=O)ccc12 [isoimperatorin] | None of these ingredients derived from botanical extracts illustrated sporicidal activity
O=c1c(OC2OC(CO)C(O)C(O)C2O)c(-c2ccc(O)c(O)c2)oc2cc(O)cc(O)c12 (stereo not drawn) [isoquercetrin] | None of these ingredients derived from botanical extracts illustrated sporicidal activity
O=c1c(O)c(-c2ccc(O)cc2)oc2cc(O)cc(O)c12 [kaempferol] | None of these botanical extracts illustrated sporicidal activity

Molecule | sporicidal activity (in words)
O=c1cc(-c2ccc(O)c(O)c2)oc2cc(O)cc(O)c12 [luteolin] | None of these botanical extracts illustrated sporicidal activity
CC(C)=CCc1cc(-c2coc3cc(O)ccc3c2=O)ccc1O [neobavaisoflavone] | None of these ingredients derived from botanical extracts illustrated sporicidal activity
O=c1cc(-c2ccccc2)oc2cc(O)c(O)c(O)c12 [noroxylin] | None of these botanical extracts illustrated sporicidal activity
CC1(C)CC[C@]2(C(=O)O)CC[C@]3(C)C(=CC[C@@H]4[C@@]5(C)CC[C@H](O)C(C)(C)[C@@H]5CC[C@]43C)[C@@H]2C1 [oleanolic acid] | None of these ingredients derived from botanical extracts illustrated sporicidal activity
COc1ccc2ccc(=O)oc2c1CC=C(C)C [osthole] | None of these botanical extracts illustrated sporicidal activity
O=C(O)C=Cc1ccc(O)cc1 [p-hydroxy-cinnamic acid] | None of these botanical extracts illustrated sporicidal activity
O=C(O)c1ccc(O)cc1 [p-hydroxybenzoic acid] | None of these ingredients derived from botanical extracts illustrated sporicidal activity
O=C(O)c1ccc(O)c(O)c1 [protocatechuic acid] | None of these ingredients derived from botanical extracts illustrated sporicidal activity
O=c1c(-c2ccc(O)cc2)coc2c([C@@H]3O[C@H](CO)[C@@H](O)[C@H](O)[C@H]3O)c(O)ccc12 [puerarin] | None of these botanical extracts illustrated sporicidal activity
O=c1c(O)c(-c2ccc(O)c(O)c2)oc2cc(O)cc(O)c12 [quercetin] | None of these botanical extracts illustrated sporicidal activity
OC[C@H]1O[C@@H](OCCc2ccc(O)cc2)[C@H](O)[C@@H](O)[C@@H]1O [salidroside] | None of these botanical extracts illustrated sporicidal activity
CC[C@H](/C=C/[C@@H](C)[C@H]1CC[C@H]2[C@@H]3CC=C4C[C@@H](O)CC[C@]4(C)[C@H]3CC[C@]12C)C(C)C [stigmasterol] | None of these ingredients derived from botanical extracts illustrated sporicidal activity
Cc1coc2c1C(=O)C(=O)c1c-2ccc2c1CCCC2(C)C [tanshinone IIA] | None of these ingredients derived from botanical extracts illustrated sporicidal activity
NCCC(=O)O [β-alanine] | None of these ingredients derived from botanical extracts illustrated sporicidal activity
bavachinin | None of these ingredients derived from botanical extracts illustrated sporicidal activity
